Assay results taken from patent publication US9458110B2, “Phenylpyrazole derivatives as potent ROCK1 and ROCK2 inhibitors” (BRISTOL-MYERS SQUIBB COMPANY, priority 2013, dated 2016).

Assays:
[1] = biological target: ROCK2 (Homo sapiens (Human), UniProt O75116); assay: ROCK assay (Caliper LABCHIP peptide phosphorylation), ROCK2; type: biochemical; conditions: 5 μM ATP, 1.5 μM peptide substrate;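 further: reaction stopped with EDTA, then phosphorylated and unphosphorylated peptide resolved by microfluidic electrophoresis, kinase inhibition computed at each compound concentration in dose-response series, DMSO under 2%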
Sequence of ROCK2 (O75116 whole entry, species assumed): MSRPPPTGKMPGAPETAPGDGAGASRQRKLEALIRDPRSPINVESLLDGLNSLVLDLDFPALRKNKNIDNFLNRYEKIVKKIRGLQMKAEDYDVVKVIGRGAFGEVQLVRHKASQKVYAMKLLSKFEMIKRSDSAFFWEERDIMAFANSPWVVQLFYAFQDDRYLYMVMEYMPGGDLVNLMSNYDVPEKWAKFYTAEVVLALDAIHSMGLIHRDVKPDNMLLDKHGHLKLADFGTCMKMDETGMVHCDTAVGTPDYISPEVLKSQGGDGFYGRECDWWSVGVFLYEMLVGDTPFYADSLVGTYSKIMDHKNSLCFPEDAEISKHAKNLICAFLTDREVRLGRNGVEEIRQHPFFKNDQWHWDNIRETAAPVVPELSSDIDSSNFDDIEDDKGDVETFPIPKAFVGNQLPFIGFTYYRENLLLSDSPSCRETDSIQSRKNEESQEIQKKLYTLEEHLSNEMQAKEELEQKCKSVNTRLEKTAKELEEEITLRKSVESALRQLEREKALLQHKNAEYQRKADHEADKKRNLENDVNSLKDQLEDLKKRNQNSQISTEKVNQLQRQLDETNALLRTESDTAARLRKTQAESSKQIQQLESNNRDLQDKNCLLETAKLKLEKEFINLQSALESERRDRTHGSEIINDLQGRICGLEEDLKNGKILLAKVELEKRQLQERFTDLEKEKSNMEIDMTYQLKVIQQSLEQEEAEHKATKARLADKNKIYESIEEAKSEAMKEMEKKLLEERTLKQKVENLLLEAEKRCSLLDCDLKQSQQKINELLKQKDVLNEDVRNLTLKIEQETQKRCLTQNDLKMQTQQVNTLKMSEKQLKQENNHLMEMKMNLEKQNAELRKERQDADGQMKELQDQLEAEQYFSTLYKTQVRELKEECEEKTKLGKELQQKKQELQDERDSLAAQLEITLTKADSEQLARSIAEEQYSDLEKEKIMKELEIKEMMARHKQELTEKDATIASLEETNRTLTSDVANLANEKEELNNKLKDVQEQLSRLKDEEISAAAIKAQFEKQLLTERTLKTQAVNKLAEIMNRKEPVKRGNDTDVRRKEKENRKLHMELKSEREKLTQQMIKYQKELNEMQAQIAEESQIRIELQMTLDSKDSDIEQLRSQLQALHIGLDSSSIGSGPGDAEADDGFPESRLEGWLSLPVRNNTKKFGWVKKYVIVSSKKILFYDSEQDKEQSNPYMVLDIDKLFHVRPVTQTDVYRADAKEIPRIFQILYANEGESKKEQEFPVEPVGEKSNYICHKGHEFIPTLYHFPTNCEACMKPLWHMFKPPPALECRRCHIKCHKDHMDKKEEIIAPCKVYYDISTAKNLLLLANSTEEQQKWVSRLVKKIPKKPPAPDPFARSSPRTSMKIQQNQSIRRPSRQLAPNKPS

[2] = biological target: ROCK1 (Homo sapiens (Human), UniProt Q13464); assay: ROCK assay (Caliper LABCHIP peptide phosphorylation), ROCK1; type: biochemical; conditions: 5 μM ATP, 1.5 μM peptide substrate;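 further: Read-out is separation of phosphorylated from unphosphorylated peptide, with kinase activity inhibition computed at every concentration of a dose-response series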
Sequence of ROCK1 (Q13464 whole entry, species assumed): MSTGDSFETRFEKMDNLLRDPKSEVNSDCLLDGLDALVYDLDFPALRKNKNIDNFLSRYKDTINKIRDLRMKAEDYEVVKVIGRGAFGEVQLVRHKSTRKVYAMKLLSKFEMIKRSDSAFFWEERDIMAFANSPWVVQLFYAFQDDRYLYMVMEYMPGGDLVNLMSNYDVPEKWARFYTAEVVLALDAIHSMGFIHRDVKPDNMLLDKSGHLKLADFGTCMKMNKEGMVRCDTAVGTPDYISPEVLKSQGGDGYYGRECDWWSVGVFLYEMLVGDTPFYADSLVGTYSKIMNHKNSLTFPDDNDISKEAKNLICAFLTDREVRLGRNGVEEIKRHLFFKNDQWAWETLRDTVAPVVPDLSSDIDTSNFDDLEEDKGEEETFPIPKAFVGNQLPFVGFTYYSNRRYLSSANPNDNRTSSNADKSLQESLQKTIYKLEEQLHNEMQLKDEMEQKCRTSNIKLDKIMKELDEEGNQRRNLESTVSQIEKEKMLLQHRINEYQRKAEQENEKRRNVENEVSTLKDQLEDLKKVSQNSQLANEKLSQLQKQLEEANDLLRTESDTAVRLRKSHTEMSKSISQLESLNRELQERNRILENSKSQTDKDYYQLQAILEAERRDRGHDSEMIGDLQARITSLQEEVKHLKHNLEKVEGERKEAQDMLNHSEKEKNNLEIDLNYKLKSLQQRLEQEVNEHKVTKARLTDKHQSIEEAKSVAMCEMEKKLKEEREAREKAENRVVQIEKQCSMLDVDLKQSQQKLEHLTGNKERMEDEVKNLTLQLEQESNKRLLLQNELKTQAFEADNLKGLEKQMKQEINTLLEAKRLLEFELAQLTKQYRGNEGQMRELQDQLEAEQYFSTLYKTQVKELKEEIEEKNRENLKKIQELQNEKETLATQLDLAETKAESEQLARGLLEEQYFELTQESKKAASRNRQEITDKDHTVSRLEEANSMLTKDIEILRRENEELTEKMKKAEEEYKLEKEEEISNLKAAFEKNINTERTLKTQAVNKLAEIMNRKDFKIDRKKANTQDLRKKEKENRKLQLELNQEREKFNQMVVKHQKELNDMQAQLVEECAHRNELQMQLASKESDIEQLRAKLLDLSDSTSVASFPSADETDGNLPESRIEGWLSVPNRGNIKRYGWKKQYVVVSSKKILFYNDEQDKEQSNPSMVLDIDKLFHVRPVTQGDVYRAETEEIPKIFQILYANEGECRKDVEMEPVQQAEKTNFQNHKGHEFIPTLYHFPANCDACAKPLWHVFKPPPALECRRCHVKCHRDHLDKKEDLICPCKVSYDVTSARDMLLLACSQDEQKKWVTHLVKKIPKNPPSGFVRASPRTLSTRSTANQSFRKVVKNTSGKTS

With `COc1cc(C(=O)NC(C)c2ccccc2Cl)ccc1-c1cn[nH]c1` (racemic) [Example 4, (+/−)-N-(1-(2-chlorophenyl)ethyl)-3-methoxy-4-(1H-pyrazol-4-yl) benzamide] the IC50 [1] was 8.99 nM and the IC50 [2] was 17.7 nM.
Compound `COc1cc(C(=O)N[C@H]2C[C@@H]2c2ccccc2)ccc1-c1cn[nH]c1` (racemic) [Example 68, (+/−)-3-methoxy-N-(trans-2-phenyl-cyclopropyl)-4-(1H-pyrazol-4-yl)benzamide] has an IC50 [1] of 8.52 nM and an IC50 [2] of 30.1 nM.
`COc1cc(C(=O)NC(C)c2cccc(CN3CCN(C)CC3)c2)ccc1-c1cn[nH]c1` (racemic) [Example 81, (+/−)-3-methoxy-N-(1-(3-((4-methylpiperazin-1-yl)methyl)phenyl)ethyl)-4-(1H-pyrazol-4-yl)benzamide] showed an IC50 [1] of 28.3 nM and an IC50 [2] of 156 nM.
In the case of `CC(NC(=O)c1ccc(-c2cn[nH]c2)c(C(F)F)c1)c1ccccc1F` (racemic) [Example 299, 3-(Difluoromethyl)-N-(1-(2-fluorophenyl)ethyl)-4-(1H-pyrazol-4-yl)benzamide], the IC50 [1] is reported as 53.3 nM and the IC50 [2] is reported as 110 nM.
For `CC(NC(=O)c1ccc(-c2cn[nH]c2)c(C(F)F)c1)c1ccccc1F` (single isomer, unassigned) [Example 300, 3-(Difluoromethyl)-N-(1-(2-fluorophenyl)ethyl)-4-(1H-pyrazol-4-yl)benzamide], the IC50 [1] was 77.1 nM and the IC50 [2] was 108 nM.
`CC(NC(=O)c1ccc(-c2cn[nH]c2)c(C(F)F)c1)c1ccccc1F` (single isomer, unassigned) [Example 301, 3-(Difluoromethyl)-N-(1-(2-fluorophenyl)ethyl)-4-(1H-pyrazol-4-yl)benzamide] was tested, and the IC50 [1] was 361 nM and the IC50 [2] was 582 nM.
With `COC(=O)CC(NC(=O)c1ccc(-c2cn[nH]c2)c(OC)c1)c1ccccc1` (stereo in doubt) [Example 92, methyl (3R)-3-{[3-methoxy-4-(1H-pyrazol-4-yl)phenyl] formamido}-3-phenyl-propanoate] the IC50 [1] was 21.4 nM and the IC50 [2] was 53.7 nM.
In the case of `COc1cc(C(=O)NC(C)c2cccc3ccccc23)ccc1-c1cn[nH]c1` (stereo in doubt) [Example 172, 3-methoxy-N-[(1R)-1-(naphthalen-1-yl)ethyl]-4-(1H-pyrazol-4-yl)benzamide], the IC50 [1] is reported as 2.32 nM and the IC50 [2] is reported as 6.68 nM.
Compound `COc1cc(C(=O)NC(C)c2ccccc2OC)ccc1-c1cn[nH]c1` (stereo in doubt) [Example 173, 3-methoxy-N-[(1R)-1-(2-methoxyphenyl)ethyl]-4-(1H-pyrazol-4-yl)benzamide] has an IC50 [1] of 27.2 nM and an IC50 [2] of 72.4 nM.
Work on `COc1cc(C(=O)NC2(c3ccccc3Cl)CC2)ccc1-c1cn[nH]c1` [Example 2, N-(1-(2-chlorophenyl)cyclopropyl)-3-methoxy-4-(1H-pyrazol-4-yl)benzamide] yielded an IC50 [1] of 4.73 nM and an IC50 [2] of 13.9 nM.
With `COc1cc(C(=O)NCc2cccc(O)c2)ccc1-c1cn[nH]c1` [Example 6, N-(3-hydroxybenzyl)-3-methoxy-4-(1H-pyrazol-4-yl)benzamide] the IC50 [1] was 0.85 nM.
In the case of `COC(=O)c1cccc(CNC(=O)c2ccc(-c3cn[nH]c3)c(OC)c2)c1` [Example 8, methyl 3-((3-methoxy-4-(1H-pyrazol-4-yl)benzamido)methyl)benzoate], the IC50 [1] is reported as 0.85 nM.
For `COc1cc(C(=O)NCc2csc(-c3ccccc3)n2)ccc1-c1cn[nH]c1` [Example 9, 3-methoxy-N-((2-phenylthiazol-4-yl)methyl)-4-(1H-pyrazol-4-yl)benzamide], the IC50 [1] was 61.9 nM and the IC50 [2] was 155 nM.
`COc1cc(C(=O)NC(CN2CCOCC2)c2ccccc2)ccc1-c1cn[nH]c1` (stereo not shown) [Example 10, 3-methoxy-N-(2-morpholino-1-phenylethyl)-4-(1H-pyrazol-4-yl)benzamide] showed an IC50 [1] of 44.5 nM and an IC50 [2] of 107 nM.
`COc1cc(C(=O)NC(CNC(=O)OC(C)(C)C)c2ccccc2)ccc1-c1cn[nH]c1` (stereo not shown) [Example 11, tert-butyl (2-(3-methoxy-4-(1H-pyrazol-4-yl)benzamido)-2-phenylethyl) carbamate] gave an IC50 [2] of 108 nM.
`COc1cc(C(=O)NC(CN2CCN(C)CC2)c2ccccc2)ccc1-c1cn[nH]c1` (stereo not shown) [Example 13, 3-methoxy-N-(2-(4-methylpiperazin-1-yl)-1-phenylethyl)-4-(1H-pyrazol-4-yl)benzamide] was tested, and the IC50 [1] was 77.1 nM and the IC50 [2] was 147 nM.
`COc1cc(C(=O)NC(CN2CCCC2)c2ccccc2)ccc1-c1cn[nH]c1` (stereo not shown) [Example 14, 3-methoxy-N-(1-phenyl-2-(pyrrolidin-1-yl)ethyl)-4-(1H-pyrazol-4-yl)benzamide] showed an IC50 [1] of 86.4 nM and an IC50 [2] of 243 nM.
Compound `COc1cc(C(=O)NCc2ccccn2)ccc1-c1cn[nH]c1` [Example 15, 3-methoxy-4-(1H-pyrazol-4-yl)-N-(pyridin-2-ylmethyl) benzamide] has an IC50 [1] of 60.4 nM and an IC50 [2] of 184 nM.
`COc1cc(C(=O)NCc2nc3ccccc3s2)ccc1-c1cn[nH]c1` [Example 16, N-(benzo[d]thiazol-2-ylmethyl)-3-methoxy-4-(1H-pyrazol-4-yl)benzamide] showed an IC50 [1] of 438 nM and an IC50 [2] of 556 nM.
`COc1cc(C(=O)NCc2cccc(F)c2)ccc1-c1cn[nH]c1` [Example 17, N-(3-fluorobenzyl)-3-methoxy-4-(1H-pyrazol-4-yl)benzamide] gave an IC50 [1] of 4.01 nM and an IC50 [2] of 8.42 nM.
`COc1cc(C(=O)NCc2cccc(-c3ccccc3)c2)ccc1-c1cn[nH]c1` [Example 18, N-([1,1′-biphenyl]-3-ylmethyl)-3-methoxy-4-(1H-pyrazol-4-yl)benzamide] was tested, and the IC50 [1] was 129 nM and the IC50 [2] was 334 nM.
For `COc1cc(C(=O)NCc2cccnc2)ccc1-c1cn[nH]c1` [Example 19, 3-methoxy-4-(1H-pyrazol-4-yl)-N-(pyridin-3-ylmethyl) benzamide], the IC50 [1] was 23.8 nM and the IC50 [2] was 104 nM.
`COc1cc(C(=O)NC(C)c2ccccc2)ccc1-c1cn[nH]c1` (stereo not shown) [Example 20, 3-methoxy-N-(1-phenylethyl)-4-(1H-pyrazol-4-yl)benzamide] showed an IC50 [1] of 2.24 nM and an IC50 [2] of 10.5 nM.
For `COc1cc(C(=O)NCc2ccccc2OC(F)(F)F)ccc1-c1cn[nH]c1` [Example 22, 3-methoxy-4-(1H-pyrazol-4-yl)-N-(2-(trifluoro-methoxy)benzyl) benzamide], the IC50 [1] was 60.2 nM and the IC50 [2] was 85.8 nM.
Work on `COc1cc(C(=O)NCc2ccccc2C)ccc1-c1cn[nH]c1` [Example 23, 3-methoxy-N-(2-methylbenzyl)-4-(1H-pyrazol-4-yl)benzamide] yielded an IC50 [1] of 2.13 nM and an IC50 [2] of 7.36 nM.
`COc1cc(C(=O)NCCc2ccc(F)cc2)ccc1-c1cn[nH]c1` [Example 24, N-(4-fluorophenethyl)-3-methoxy-4-(1H-pyrazol-4-yl)benzamide] showed an IC50 [1] of 15.6 nM and an IC50 [2] of 37.4 nM.
Compound `COc1cc(C(=O)NCc2ccccc2F)ccc1-c1cn[nH]c1` [Example 25, N-(2-fluorobenzyl)-3-methoxy-4-(1H-pyrazol-4-yl)benzamide] has an IC50 [1] of 2.65 nM and an IC50 [2] of 7.9 nM.
`COc1cc(C(=O)NCc2ccccc2C(F)(F)F)ccc1-c1cn[nH]c1` [Example 26, 3-methoxy-4-(1H-pyrazol-4-yl)-N-(2-(trifluoromethyl)benzyl)benzamide] showed an IC50 [1] of 20.9 nM and an IC50 [2] of 20.4 nM.
With `COc1cc(C(=O)NCc2ccccc2)ccc1-c1cn[nH]c1` [Example 27, N-benzyl-3-methoxy-4-(1H-pyrazol-4-yl) benzamide] the IC50 [1] was 2.6 nM and the IC50 [2] was 12.8 nM.
`COc1cc(C(=O)NCc2cccc(OC(F)(F)F)c2)ccc1-c1cn[nH]c1` [Example 28, 3-methoxy-4-(1H-pyrazol-4-yl)-N-(3-(trifluoro-methoxy)benzyl) benzamide] was tested, and the IC50 [1] was 40.9 nM and the IC50 [2] was 1710 nM.
In the case of `COc1cc(C(=O)NCc2cccc(Cl)c2Cl)ccc1-c1cn[nH]c1` [Example 29, N-(2,3-dichlorobenzyl)-3-methoxy-4-(1H-pyrazol-4-yl)benzamide], the IC50 [1] is reported as 2.53 nM and the IC50 [2] is reported as 5.77 nM.
`COc1cc(C(=O)NC(C)(C)c2ccccc2)ccc1-c1cn[nH]c1` [Example 30, 3-methoxy-N-(2-phenylpropan-2-yl)-4-(1H-pyrazol-4-yl)benzamide] gave an IC50 [1] of 129 nM and an IC50 [2] of 214 nM.
For `COc1cc(C(=O)NCc2ccccc2O)ccc1-c1cn[nH]c1` [Example 31, N-(2-hydroxybenzyl)-3-methoxy-4-(1H-pyrazol-4-yl)benzamide], the IC50 [1] was 5.62 nM and the IC50 [2] was 9.2 nM.
`COc1cc(C(=O)NCc2cccc(C(F)(F)F)c2)ccc1-c1cn[nH]c1` [Example 32, 3-methoxy-4-(1H-pyrazol-4-yl)-N-(3-(trifluoro-methyl)benzyl) benzamide] gave an IC50 [1] of 11.5 nM and an IC50 [2] of 43.3 nM.
`COc1cc(C(=O)NCCc2ccccc2Cl)ccc1-c1cn[nH]c1` [Example 35, N-(2-chloro-phenethyl)-3-methoxy-4-(1H-pyrazol-4-yl)benzamide] gave an IC50 [1] of 6.6 nM and an IC50 [2] of 16.5 nM.
`COc1cc(C(=O)NCCc2ccccc2)ccc1-c1cn[nH]c1` [Example 36, 3-methoxy-N-phenethyl-4-(1H-pyrazol-4-yl)benzamide] gave an IC50 [1] of 10.5 nM and an IC50 [2] of 28.1 nM.
`COc1cc(C(=O)NCc2ccc(Cl)cc2S(=O)(=O)CC(C)C)ccc1-c1cn[nH]c1` [Example 37, N-(4-chloro-2-(isobutyl-sulfonyl)benzyl)-3-methoxy-4-(1H-pyrazol-4-yl)benzamide] showed an IC50 [1] of 1410 nM and an IC50 [2] of 2440 nM.
Compound `COc1cc(C(=O)NCc2ccc3c(c2)OCO3)ccc1-c1cn[nH]c1` [Example 38, N-(benzo[d] [1,3]dioxol-5-ylmethyl)-3-methoxy-4-(1H-pyrazol-4-yl)benzamide] has an IC50 [1] of 14.2 nM and an IC50 [2] of 34.8 nM.
`CNC(=O)c1cccc(CNC(=O)c2ccc(-c3cn[nH]c3)c(OC)c2)c1` [Example 65, 3-Methoxy-N-(3-(methylcarbamoyl)benzyl)-4-(1H-pyrazol-4-yl)benzamide] was tested, and the IC50 [1] was 0.85 nM.
Compound `COc1cc(C(=O)NC(C)Cc2ccc(F)cc2)ccc1-c1cn[nH]c1` (stereo not shown) [Example 111, N-[1-(4-fluorophenyl)propan-2-yl]-3-methoxy-4-(1H-pyrazol-4-yl)benzamide] has an IC50 [2] of 35.8 nM.
Compound `C[C@@H](NC(=O)c1cc(F)c(-c2cn[nH]c2)cc1OCCN(C)C)c1ccccc1` [Example 310, 2-[2-(dimethylamino)ethoxy]-5-fluoro-N-[(1R)-1-phenylethyl]-4-(1H-pyrazol-4-yl)benzamide] has an IC50 [1] of 675 nM.
